Patent publication US10335409B2 (priority 2012, dated 2019)
Like-named read-outs stand apart in the source and are kept apart here.

Key:
Format in all cases: cell-based, hepatitis C virus
[1] = test system: genotype 1a (H77) stable HCV replicon in Huh-7-derived cells; assay: Stable subgenomic HCV replicon EC50, genotype 1a (Renilla luciferase); conditions: Hepatitis C virus, stable replicon genotype 1a, 72 h, read-out: EC50 1A RLUC
In short: (§1)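 Compounds, three-fold diluted, were applied to Huh-7-derived cells harbouring luciferase replicons (genotype 1a H77, 1b Con1, 2a JFH-1, 4a ED43, with strain-specific adaptive mutations). Seventy-two hours later, intracellular replication was gauged by Renilla luciferase activity and EC50 derived by regression.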

[2] = test system: genotype 1b (Con1) stable HCV replicon in Huh-7-derived cells; assay: Stable subgenomic HCV replicon EC50, genotype 1b (Renilla luciferase); conditions: Hepatitis C virus, stable replicon genotype 1b, 72 h, read-out: EC50 1B RLUC
In short: as §1

[3] = test system: genotype 2a (JFH-1) stable HCV replicon in Huh-7-derived cells; assay: Stable subgenomic HCV replicon EC50, genotype 2a (Renilla luciferase); conditions: Hepatitis C virus, stable replicon genotype 2a, 72 h, read-out: EC50 2A RLUC
In short: as §1

[4] = test system: genotype 3a (S52) stable HCV replicon in Huh-7-derived cells; assay: Stable subgenomic HCV replicon EC50, genotype 3a (Renilla luciferase); conditions: Hepatitis C virus, 72 h, read-out: EC50 3A RLUC
[5] = test system: genotype 4a (ED43) stable HCV replicon in Huh-7-derived cells; assay: Stable subgenomic HCV replicon EC50, genotype 4a (Renilla luciferase); conditions: Hepatitis C virus, 72 h, read-out: EC50 4A RLUC
In short: as §1

[6] = test system: genotype 3a (S52) wild type transient HCV replicon in Huh-7-derived cells; assay: Transient-transfected HCV replicon EC50, genotype 3a wild type; conditions: Hepatitis C virus, 72 h, read-out: EC50 3A WT
[7] = test system: genotype 1a (H77) wild type transient HCV replicon in Huh-7-derived cells; assay: Transient-transfected HCV replicon EC50, genotype 1a wild type; conditions: Hepatitis C virus, 72 h, read-out: EC50 1A WT
[8] = test system: genotype 1a NS3/4a protease inhibitor resistant variant R155K transient HCV replicon in Huh-7-derived cells; assay: Transient-transfected HCV replicon EC50, genotype 1a R155K; conditions: Hepatitis C virus, 72 h, read-out: EC50 1A R155K, transient-transfected replicon genotype 1a R155K resistant variant, 72 h
[9] = test system: genotype 1b (Con1) wild type transient HCV replicon in Huh-7-derived cells; assay: Transient-transfected HCV replicon EC50, genotype 1b wild type; conditions: Hepatitis C virus, 72 h, read-out: EC50 1B WT
[10] = test system: genotype 1b NS3/4a protease inhibitor resistant variant D168A transient HCV replicon in Huh-7-derived cells; assay: Transient-transfected HCV replicon EC50, genotype 1b D168A; conditions: Hepatitis C virus, 72 h, read-out: EC50 1B D168A, transient-transfected replicon genotype 1b D168A resistant variant, 72 h
[11] = transient-transfected replicon genotype 3a wild type
[12] = transient-transfected replicon genotype 1a wild type
[13] = transient-transfected replicon genotype 1b wild type

Compound | EC50 [1] [nM] | EC50 [2] [nM] | EC50 [3] [nM] | EC50 [4] [nM] | EC50 [5] [nM] | EC50 [6, 11] [nM] | EC50 [7, 12] [nM] | EC50 [8] [nM] | EC50 [9, 13] [nM] | EC50 [10] [nM] | EC50 [6] [nM] | EC50 [7] [nM] | EC50 [9] [nM]
CC[C@@H]1[C@@H]2CN(C(=O)[C@H](C(C)(C)C)NC(=O)O[C@]3(C)CCC[C@H]3CCCCCc3nc4ccc(OC)cc4nc3O2)[C@@H]1C(=O)N[C@]1(C(=O)NS(=O)(=O)C2(C)CC2)C[C@H]1CC(F)F [Example 41, (3aR,7S,10S,11S,12R,24aR)-7-tert-butyl-N-[(1R,2S)-2-(2,2-difluoroethyl)-1-{[(1-methylcyclopropyl)sulfonyl]carbamoyl}cyclopropyl]-11-ethyl-16-methoxy-3a-methyl-5,8-dioxo-1,2,3,3a,5,6,7,8,11,12,20,21,22,23,24,24a-hexadecahydro-10H-9,12-methanocyclopenta[18,19][1,10,3,6]dioxadiazacyclononadecino[11,12-b]quinoxaline-10-carboxamide] | 135 | 142 | 106 | 2610 | 135 | 539 | 164 | 505 | 154 | 715 | – | – | –
CCC[C@@H]1[C@@H]2CN(C(=O)[C@H](C(C)(C)C)NC(=O)O[C@@H]3C[C@H]3CCCCC(F)(F)c3nc4ccc(OC)cc4nc3O2)[C@@H]1C(=O)N[C@]1(C(=O)NS(=O)(=O)C2(C)CC2)C[C@H]1C(F)F [Example 65, (1aR,5S,8S,9S,10R,22aR)-5-tert-butyl-N-[(1R,2R)-2-(difluoromethyl)-1-{[(1-methylcyclopropyl)sulfonyl]carbamoyl}cyclopropyl]-18,18-difluoro-14-methoxy-3,6-dioxo-9-propyl-1,1a,3,4,5,6,9,10,18,19,20,21,22,22a-tetradecahydro-8H-7,10-methanocyclopropa[18,19][1,10,3,6]dioxadiazacyclononadecino[11,12-b]quinoxaline-8-carboxamide] | 12 | 8.4 | 7.7 | 30 | 8.1 | – | – | 8.1 | – | 11 | 17 | 9.4 | 6.4
CC[C@@H]1[C@@H]2CN(C(=O)[C@H](C(C)(C)C)NC(=O)O[C@@H]3C[C@H]3CCCCC(F)(F)c3nc4ccc(OC)cc4nc3O2)[C@@H]1C(=O)NC1(C(=O)NS(=O)(=O)C2CC2)C[C@H]1C(F)F (stereo partly drawn) [Example 94, (1aR,5S,8S,9S,10R,22aR)-5-tert-butyl-N-[(2R)-1-[(cyclopropylsulfonyl)carbamoyl]-2-(difluoromethyl)cyclopropyl]-9-ethyl-18,18-difluoro-14-methoxy-3,6-dioxo-1,1a,3,4,5,6,9,10,18,19,20,21,22,22a-tetradecahydro-8H-7,10-methanocyclopropa[18,19][1,10,3,6]dioxadiazacyclononadecino[1,12-b]quinoxaline-8-carboxamide] | 3.8 | 5.2 | 3.3 | 32 | 3 | 10 | 3.2 | 3.1 | 1.9 | 9.2 | – | – | –
CC[C@@H]1[C@@H]2CN(C(=O)[C@H](C(C)(C)C)NC(=O)O[C@@H]3C[C@H]3CCCCC(F)(F)c3nc4ccc(C#N)cc4nc3O2)[C@@H]1C(=O)N[C@]1(C(=O)NS(=O)(=O)C2(C)CC2)C[C@H]1C(F)F [Example 87, (1aR,5S,8S,9S,10R,22aR)-5-tert-butyl-14-cyano-N-[(1R,2R)-2-(difluoromethyl)-1-{[(1-methylcyclopropyl)sulfonyl]carbamoyl}cyclopropyl]-9-ethyl-18,18-difluoro-3,6-dioxo-1,1a,3,4,5,6,9,10,18,19,20,21,22,22a-tetradecahydro-8H-7,10-methanocyclopropa[18,19][1,10,3,6]dioxadiazacyclononadecino[11,12-b]quinoxaline-8-carboxamide] | 4.8 | 3.9 | 3.3 | 14 | 3.8 | 7.7 | 2.9 | 2.8 | 1.3 | 4 | – | – | –
CC[C@@H]1[C@@H]2CN(C(=O)[C@H](C(C)(C)C)NC(=O)O[C@@H]3C[C@H]3CCCCC(F)(F)c3nc4ccccc4nc3O2)[C@@H]1C(=O)N[C@]1(C(=O)NS(=O)(=O)C2CC2)C[C@H]1C(F)F [Example 53, (1aR,5S,8S,9S,10R,22aR)-5-tert-butyl-N-[(1R,2R)-1-[(cyclopropylsulfonyl)carbamoyl]-2-(difluoromethyl)cyclopropyl]-9-ethyl-18,18-difluoro-3,6-dioxo-1,1a,3,4,5,6,9,10,18,19,20,21,22,22a-tetradecahydro-8H-7,10-methanocyclopropa[18,19][1,10,3,6]dioxadiazacyclononadecino[11,12-b]quinoxaline-8-carboxamide] | 51 | 7.7 | 13 | 18 | 2.8 | 15 | 5.3 | 5.6 | 2 | 11 | – | – | –
CC[C@@H]1[C@@H]2CN(C(=O)[C@H](C(C)(C)C)NC(=O)O[C@]3(C)CCC[C@H]3CCCCCc3nc4ccc(OC)cc4nc3O2)[C@@H]1C(=O)N[C@]1(C(=O)NS(=O)(=O)C2(C)CC2)C[C@H]1CC [Example 56, (3aR,7S,10S,11S,12R,24aR)-7-tert-butyl-11-ethyl-N-[(1R,2R)-2-ethyl-1-{[(1-methylcyclopropyl)sulfonyl]carbamoyl}cyclopropyl]-16-methoxy-3a-methyl-5,8-dioxo-1,2,3,3a,5,6,7,8,11,12,20,21,22,23,24,24a-hexadecahydro-10H-9,12-methanocyclopenta[18,19][1,10,3,6]dioxadiazacyclononadecino[11,12-b]quinoxaline-10-carboxamide] | 41 | 37 | 57 | 1030 | 57 | 226 | 63 | 168 | 59 | 252 | – | – | –
COc1ccc2nc3c(nc2c1)O[C@H]1CN(C(=O)[C@H](C(C)(C)C)NC(=O)O[C@@]2(C)C[C@@H]2CCCCC3(F)F)[C@H](C(=O)N[C@]2(C(=O)NS(=O)(=O)C3(C)CC3)C[C@H]2C(F)F)[C@@H]1C [Example 77, (1 aS,5S,8S,9S,10R,22aS)-5-tert-butyl-N-[(1R,2R)-2-(difluoromethyl)-1-{[(1-methylcyclopropyl)sulfonyl]carbamoyl}cyclopropyl]-18,18-difluoro-14-methoxy-1a,9-dimethyl-3,6-dioxo-1,1a,3,4,5,6,9,10,18,19,20,21,22,22a-tetradecahydro-8H-7,10-methanocyclopropa[18,19][1,10,3,6]dioxadiazacyclononadecino[11,12-b]quinoxaline-8-carboxamide] | 23 | 12 | 29 | 741 | 16 | 472 | 21 | 34 | 5 | 80 | – | – | –
CC[C@@H]1[C@@H]2CN(C(=O)[C@H](C(C)(C)C)NC(=O)O[C@@H]3C[C@H]3CCCCCc3nc4ccc(OC)cc4nc3O2)[C@@H]1C(=O)N[C@]1(C(=O)NS(=O)(=O)C2(C)CC2)C[C@H]1CC(F)F [Example 67, (1aR,5S,8S,9S,10R,22aR)-5-tert-butyl-N-[(1R,2S)-2-(2,2-difluoroethyl)-1-{[(1-methylcyclopropyl)sulfonyl]carbamoyl}cyclopropyl]-9-ethyl-14-methoxy-3,6-dioxo-1,1a,3,4,5,6,9,10,18,19,20,21,22,22a-tetradecahydro-8H-7,10-methanocyclopropa[18,19][1,10,3,6]dioxadiazacyclononadecino[11,12-b]quinoxaline-8-carboxamide] | 11 | 12 | 24 | 383 | 12 | 107 | 14 | 42 | 10 | 86 | – | – | –
